Source: US11352353B2, “Heterocyclic compound serving as FGFR4 inhibitor” (Hangzhou Innogate Pharma Co., Ltd., priority 2016, dated 2022)

What was measured:
[1] = tested on: Huh7 tumor cells; assay: Inhibition of Huh-7 tumor cell proliferation (CellTiter Glo); assay type: cell-based; conditions: Homo sapiens, 72 or 168 hours
Procedure: 2. Compound Inhibition Test on Huh-7 Tumor Cell Proliferation
The Huh7 cell suspension was adjusted to 5×10e4/mL or 2×10e4/mL with DMEM+2 Mm Glutamine+10% FBS medium. A 100 μL cell suspension was added to each well in a 96-well cell culture plate at a final cell concentration of 5000 cells/well (72 hours) or 2000 cells/well (168 hours). The test compound was dissolved in DMSO as a 10 mM stock solution. Compounds at a final concentration of 200× were prepared using stock solutions and DMSO, and 3× serial dilutions were prepared and then diluted 20-fold with each medium. Finally, 10 μL of the corresponding 10-fold solution was added to each well of each cell, and each drug concentration was single-well. The final concentrations of each compound were 3000 nM, 1000 nM, 333.3 nM, 111.1 nM, 37.04 nM, 12.35 nM, 4.12 nM, 1.37 nM, and the final concentration of DMSO per well was 0.5%. Incubate for 72 or 168 hours in a 37° C., 5% CO2 incubator. After 72 or 168 hours of drug treatment, according to the CTG instructions, add 100 µL CellTiter Glo detection reagent per well, pre-melt and equilibrate to room temperature CTG solution, mix with a microplate shaker for 2 minutes, and leave at room temperature for 10 minutes. The chemiluminescence signal value was then measured using an EnSpire plate reader. Cell survival rate was calculated using formula: (Vsample−Vblank)/(Vvehicle control−Vblank)×100%. Vsample is the reading of the drug treatment group, Vvehicle control is the average value of the solvent control group, and Vblank is the average value of the blank control well. The S-type dose-survival curve was plotted and the IC50 values were calculated using the GraphPad Prism 5.0 software using a non-linear regression model.

[2] = biological target: FGFR4 (Homo sapiens, UniProt P22455); assay: FGFR4 kinase activity inhibition (Caliper mobility shift assay); assay type: biochemical; conditions: FAM-labeled peptide and ATP, 28° C. 30-60 minutes, read-out: FGFR kinase inhibition (IC50, nM) FGFR4
Chain of FGFR4 (P22455 22-802): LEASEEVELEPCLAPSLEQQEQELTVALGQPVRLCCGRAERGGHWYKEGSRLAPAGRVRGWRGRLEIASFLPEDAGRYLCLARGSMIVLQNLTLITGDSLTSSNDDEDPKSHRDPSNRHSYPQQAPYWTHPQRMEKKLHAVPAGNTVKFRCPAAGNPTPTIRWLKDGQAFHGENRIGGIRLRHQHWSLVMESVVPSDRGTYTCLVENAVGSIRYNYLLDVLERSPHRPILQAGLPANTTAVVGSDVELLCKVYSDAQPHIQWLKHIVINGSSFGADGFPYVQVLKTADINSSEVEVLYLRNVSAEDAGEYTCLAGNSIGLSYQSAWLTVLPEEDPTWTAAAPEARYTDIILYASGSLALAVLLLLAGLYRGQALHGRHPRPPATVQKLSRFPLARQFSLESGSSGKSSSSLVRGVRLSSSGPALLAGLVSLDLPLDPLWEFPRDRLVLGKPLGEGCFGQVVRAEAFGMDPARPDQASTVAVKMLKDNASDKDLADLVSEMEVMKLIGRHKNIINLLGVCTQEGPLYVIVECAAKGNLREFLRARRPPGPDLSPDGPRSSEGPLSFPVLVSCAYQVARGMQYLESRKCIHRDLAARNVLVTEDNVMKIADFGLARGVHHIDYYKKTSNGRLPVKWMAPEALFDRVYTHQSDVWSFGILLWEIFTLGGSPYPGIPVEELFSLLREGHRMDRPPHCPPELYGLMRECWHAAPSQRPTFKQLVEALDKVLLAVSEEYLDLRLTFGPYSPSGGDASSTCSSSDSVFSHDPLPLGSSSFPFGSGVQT
Procedure: (§1) 1. FGFR1 and FGFR4 Kinase Activity Inhibition Experiments
(§2) The FGFR1, FGFR2, FGFR3 and FGFR4 protein kinase activities were determined using the Caliper mobility shift assay. The compound was dissolved in DMSO and diluted with kinase buffer, and 5 µL of a 5-fold final concentration of the compound (10% DMSO) was added to a 384-well plate. After adding 10 µL of 2.5-fold enzyme (FGFR1 and FGFR4, respectively) solution, incubate for 10 minutes at room temperature, and then add 10 µL of a (FAM-labeled peptide and ATP) solution. Incubate at 28° C. for 30-60 minutes and stop the reaction by adding 25 µL stop solution. Conversion rate data was read on a Caliper EZ Reader II (Caliper Life Sciences). The conversion rate was converted into inhibition rate data (% inhibition rate=(max−sample conversion rate)/(max−min)*100). Wherein max is the conversion of the DMSO control and min is the conversion of the enzyme-free control. Plot the curve with the compound concentration and inhibition rate on the horizontal and vertical coordinates, and fit the curve and calculate the IC50 using XLFit excel add-in version 4.3.1 software.

[3] = biological target: FGFR1 (Homo sapiens, UniProt P11362); assay: FGFR1 kinase activity inhibition (Caliper mobility shift assay); assay type: biochemical; conditions: FAM-labeled peptide and ATP, 28° C. 30-60 minutes, read-out: FGFR kinase inhibition (IC50, nM) FGFR1
Chain of FGFR1 (P11362 22-822): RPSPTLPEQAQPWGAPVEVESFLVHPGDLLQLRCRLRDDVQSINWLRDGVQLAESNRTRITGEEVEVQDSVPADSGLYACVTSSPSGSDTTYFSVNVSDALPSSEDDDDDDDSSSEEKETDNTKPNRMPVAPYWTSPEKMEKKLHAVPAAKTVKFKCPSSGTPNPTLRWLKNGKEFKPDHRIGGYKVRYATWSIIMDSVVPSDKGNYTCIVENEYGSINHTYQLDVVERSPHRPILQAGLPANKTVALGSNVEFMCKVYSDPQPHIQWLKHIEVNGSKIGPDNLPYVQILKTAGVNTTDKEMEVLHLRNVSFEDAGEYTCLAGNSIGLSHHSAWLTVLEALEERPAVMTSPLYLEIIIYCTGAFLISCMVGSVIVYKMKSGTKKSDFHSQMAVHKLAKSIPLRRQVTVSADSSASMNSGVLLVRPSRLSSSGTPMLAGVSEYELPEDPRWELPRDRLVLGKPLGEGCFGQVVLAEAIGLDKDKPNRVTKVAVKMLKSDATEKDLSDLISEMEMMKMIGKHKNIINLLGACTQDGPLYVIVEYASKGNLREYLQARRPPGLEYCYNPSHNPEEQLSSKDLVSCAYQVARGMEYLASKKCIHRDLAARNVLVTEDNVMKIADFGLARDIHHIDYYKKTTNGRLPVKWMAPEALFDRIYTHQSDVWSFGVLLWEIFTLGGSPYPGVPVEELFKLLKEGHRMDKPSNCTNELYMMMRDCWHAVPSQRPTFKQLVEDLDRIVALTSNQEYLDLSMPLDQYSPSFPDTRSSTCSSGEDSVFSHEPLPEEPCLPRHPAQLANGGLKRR
Procedure: as §1, §2

IC50 [1] [nM] | IC50 [2] [nM] | IC50 [3] [nM] | SMILES
< 50 | – | – | CO[C@H]1CC[C@@H](Nc2cc(NC(=O)N3CCCc4cc(CN5CCN(C)CC5=O)c(C=O)nc43)ncc2C#N)CC1 [Compound 3]
< 500 | < 20 | – | N#Cc1cnc(NC(=O)N2CCCc3cc(CN4CCN(C5CC5)CC4=O)c(C=O)nc32)cc1OC1CC1 [Compound 4]
– | < 5 | – | COCCNc1cc(NC(=O)N2CCCc3cc(CN4CCCN(C)CC4=O)c(C=O)nc32)ncc1C#N [Compound 9]
– | < 5 | – | COCCNc1cc(NC(=O)N2CCCc3cc(CN4CCN(C5CN(C)C5)CC4=O)c(C=O)nc32)ncc1C#N [Compound 11]
< 50 | – | > 10000 | CN1CCN(Cc2cc3c(nc2C=O)N(C(=O)Nc2cc(OC4CC4)c(C#N)cn2)CCC3)C(=O)C1 [Compound 1]
< 50 | – | – | CN1CCCN(Cc2cc3c(nc2C=O)N(C(=O)Nc2cc(OC4CC4)c(C#N)cn2)CCC3)C(=O)C1 [Compound 5]
– | < 5 | – | COCCNc1cc(NC(=O)N2CCCc3cc(CN4CCN5CCCC5C4=O)c(C=O)nc32)ncc1C#N (stereo not drawn) [Compound 10]
< 500 | – | – | COCC1(Oc2cc(NC(=O)N3CCCc4cc(CN5CCN(C)CC5=O)c(C=O)nc43)ncc2C#N)CC1 [Compound 7]
< 50 | – | > 10000 | COC1CCC(Oc2cc(NC(=O)N3CCCc4cc(CN5CCN(C)CC5=O)c(C=O)nc43)ncc2C#N)CC1 (stereo not drawn) [Compound 2]
– | < 5 | – | CN1CCN(Cc2cc3c(nc2C=O)N(C(=O)Nc2cc(NC4CC4)c(C#N)cn2)CCC3)C(=O)C1 [Compound 12]
< 500 | – | – | N#Cc1cnc(NC(=O)N2CCCc3cc(CN4CC5CCCN5CC4=O)c(C=O)nc32)cc1OC1CC1 (stereo not drawn) [Compound 6]
– | < 5 | – | COC1CC(Nc2cc(NC(=O)N3CCCc4cc(CN5CCN(C)CC5=O)c(C=O)nc43)ncc2C#N)C1 (stereo not drawn) [Compound 8]
